Experimental data: patent US6737383B1, “Herbicidal oxadiazolidines” (priority 1999, dated 2004)

Legend:
cocklebur = assay: Test B pre/postemergence cocklebur; assay type: in vivo, Xanthium strumarium
Procedure, shortened: (§1)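 Test chemicals in a non-phytotoxic solvent mixture with surfactant were sprayed preemergence onto planted seeds and postemergence onto plants 2 to 18 cm tall (1- to 4-leaf stage). After twelve to sixteen days in a greenhouse, injury was visually rated against untreated controls from 0 (no effect) to 10 (complete control).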

velvetleaf = assay: Test B pre/postemergence velvetleaf; assay type: in vivo, Abutilon theophrasti
Procedure, shortened: as §1

pigweed = assay: Test B pre/postemergence pigweed; assay type: in vivo, Amaranthus retroflexus
Procedure, shortened: as §1

morningglory = assay: Test B pre/postemergence morningglory; assay type: in vivo, Ipomoea hederacea
Procedure, shortened: as §1

wheat = assay: Test B pre/postemergence wheat; assay type: in vivo, Triticum aestivum
Procedure, shortened: as §1

rape = assay: Test B pre/postemergence rape; assay type: in vivo, Brassica napus
Procedure, shortened: as §1

blackgrass = assay: Test B pre/postemergence blackgrass; assay type: in vivo, Alopecurus myosuroides
Procedure, shortened: as §1

rice = assay: Test B flood test rice; assay type: in vivo, Oryza sativa
Procedure, shortened: (§2)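 Plants were grown to the 2-leaf stage before treatment with test chemical, then held in a greenhouse for twelve to sixteen days. Injury was visually rated against untreated controls on a 0–10 scale, where 0 is no effect and 10 is complete control.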

bamyardgrass = assay: Test B flood test barnyardgrass; assay type: in vivo, Echinochloa crus-galli
Procedure, shortened: as §2

purple nutsedge = assay: Test B pre/postemergence purple nutsedge; assay type: in vivo, Cyperus rotundus
Procedure, shortened: as §1

bedstraw = assay: Test B pre/postemergence bedstraw; assay type: in vivo, Galium aparine
Procedure, shortened: as §1

corn = assay: Test B pre/postemergence corn; assay type: in vivo, Zea mays
Procedure, shortened: as §1

surinam grass = assay: Test B pre/postemergence surinam grass; assay type: in vivo, Brachiaria decumbens
Procedure, shortened: as §1

wild oat = assay: Test B pre/postemergence wild oat; assay type: in vivo, Avena fatua
Procedure, shortened: as §1

duck salad = assay: Test B flood test duck salad; assay type: in vivo, Heteranthera limosa
Procedure, shortened: as §2

smallflower flatsedge = assay: Test B flood test smallflower flatsedge; assay type: in vivo, Cyperus difformis
Procedure, shortened: as §2

[1] = Postemergence, Rate 62 g/ha, scale 0 to 10, 0 is no effect, 10 is complete control
[2] = Postemergence, Rate 250 g/ha, scale 0 to 10, 0 no effect, 10 complete control
[3] = Preemergence, Rate 62 g/ha, scale 0 to 10 (0 no effect, 10 complete control)
[4] = Preemergence, Rate 125 g/ha, scale 0 to 10 (0 no effect, 10 complete control)
[5] = Preemergence, Rate 250 g/ha, scale of 0 to 10 where 0 is no effect and 10 is complete control
[6] = Preemergence, Rate 500 g/ha, scale 0 (no effect) to 10 (complete control)
[7] = Rate 125 g/ha, Postemergence, scale 0 to 10, 0 no effect, 10 complete control
[8] = Rate 500 g/ha, Postemergence, scale 0 to 10, 0 no effect, 10 complete control
[9] = Rate 125 g/ha, Postemergence section (flood test species), scale 0 to 10, 0 no effect, 10 complete control
[10] = Rate 500 g/ha, listed under Postemergence (flood test species), scale 0 to 10, 0 no effect, 10 complete control
[11] = flood test, listed under Postemergence, Rate 250 g/ha, scale 0 to 10, 0 no effect, 10 complete control

Cc1nn(C)c(C)c1-n1c(=O)on(C(=O)N(c2ccc(F)cc2F)C(C)C)c1=O [Compound 76]
Cocklebur plant response rating (cocklebur; [1]): 0 | Cocklebur plant response rating (cocklebur; [2]): 3 | Cocklebur plant response rating (cocklebur; [3]): 0 | Plant response rating, Cocklebur (cocklebur; [4]): 0 | Plant response rating, Cocklebur (cocklebur; [5]): 0 | Cocklebur plant response rating (cocklebur; [6]): 0 | Cocklebur plant response rating (cocklebur; [7]): 0 | Cocklebur plant response rating (cocklebur; [8]): 4 | Velvetleaf plant response rating (velvetleaf; [1]): 0 | Velvetleaf plant response rating (velvetleaf; [2]): 3 | Velvetleaf plant response rating (velvetleaf; [3]): 0 | Plant response rating, Velvetleaf (velvetleaf; [4]): 0 | Plant response rating, Velvetleaf (velvetleaf; [5]): 0 | Velvetleaf plant response rating (velvetleaf; [6]): 0 | Velvetleaf plant response rating (velvetleaf; [7]): 0 | Velvetleaf plant response rating (velvetleaf; [8]): 4 | Redroot pigweed plant response rating (pigweed; [1]): 0 | Redroot pigweed plant response rating (pigweed; [2]): 0 | Redroot pigweed plant response rating (pigweed; [3]): 0 | Plant response rating, Redroot pigweed (pigweed; [4]): 0 | Plant response rating, Redroot pigweed (pigweed; [5]): 3 | Redroot pigweed plant response rating (pigweed; [6]): 8 | Redroot pigweed plant response rating (pigweed; [7]): 0 | Redroot pigweed plant response rating (pigweed; [8]): 4 | Morningglory plant response rating (morningglory; [1]): 0 | Morningglory plant response rating (morningglory; [2]): 4 | Morningglory plant response rating (morningglory; [3]): 0 | Plant response rating, Morningglory (morningglory; [4]): 0 | Plant response rating, Morningglory (morningglory; [5]): 0 | Morningglory plant response rating (morningglory; [6]): 0 | Morningglory plant response rating (morningglory; [7]): 2 | Morningglory plant response rating (morningglory; [8]): 7 | Wheat plant response rating (wheat; [1]): 0 | Wheat plant response rating (wheat; [2]): 0 | Wheat plant response rating (wheat; [3]): 0 | Plant response rating, Wheat (wheat; [4]): 0 | Plant response rating, Wheat (wheat; [5]): 0 | Wheat plant response rating (wheat; [6]): 2 | Wheat plant response rating (wheat; [7]): 0 | Wheat plant response rating (wheat; [8]): 3 | Rape plant response rating (rape; [1]): 0 | Rape plant response rating (rape; [2]): 0 | Rape plant response rating (rape; [3]): 0 | Plant response rating, Rape (rape; [4]): 0 | Plant response rating, Rape (rape; [5]): 0 | Rape plant response rating (rape; [6]): 0 | Rape plant response rating (rape; [7]): 0 | Rape plant response rating (rape; [8]): 2 | Blackgrass plant response rating (blackgrass; [1]): 0 | Blackgrass plant response rating (blackgrass; [2]): 6 | Blackgrass plant response rating (blackgrass; [3]): 0 | Plant response rating, Blackgrass (blackgrass; [4]): 2 | Plant response rating, Blackgrass (blackgrass; [5]): 4 | Blackgrass plant response rating (blackgrass; [6]): 8 | Blackgrass plant response rating (blackgrass; [7]): 2 | Blackgrass plant response rating (blackgrass; [8]): 8 | Rice plant response rating (rice; [1]): 0 | Rice plant response rating (rice; [9]): 0 | Rice plant response rating (rice; [10]): 3 | Rice plant response rating (rice; [11]): 3 | Barnyardgrass plant response rating (bamyardgrass; [1]): 0 | Barnyardgrass plant response rating (bamyardgrass; [9]): 0 | Barnyardgrass plant response rating (bamyardgrass; [10]): 0 | Barnyardgrass plant response rating (bamyardgrass; [11]): 0 | Nutsedge plant response rating (purple nutsedge; [1]): 0 | Nutsedge plant response rating (purple nutsedge; [2]): 0 | Nutsedge plant response rating (purple nutsedge; [3]): 0 | Plant response rating, Nutsedge (purple nutsedge; [4]): 0 | Plant response rating, Nutsedge (purple nutsedge; [5]): 0 | Nutsedge plant response rating (purple nutsedge; [6]): 0 | Nutsedge plant response rating (purple nutsedge; [7]): 0 | Nutsedge plant response rating (purple nutsedge; [8]): 0 | Bedstraw plant response rating (bedstraw; [1]): 0 | Bedstraw plant response rating (bedstraw; [2]): 2 | Bedstraw plant response rating (bedstraw; [3]): 0 | Plant response rating, Bedstraw (bedstraw; [4]): 0 | Plant response rating, Bedstraw (bedstraw; [5]): 0 | Bedstraw plant response rating (bedstraw; [6]): 0 | Bedstraw plant response rating (bedstraw; [7]): 0 | Bedstraw plant response rating (bedstraw; [8]): 4 | Corn plant response rating (corn; [1]): 0 | Corn plant response rating (corn; [2]): 0 | Corn plant response rating (corn; [3]): 0 | Plant response rating, Corn (corn; [4]): 0 | Plant response rating, Corn (corn; [5]): 2 | Corn plant response rating (corn; [6]): 4 | Corn plant response rating (corn; [7]): 0 | Corn plant response rating (corn; [8]): 0 | B. signalgrass plant response rating (surinam grass; [1]): 0 | B. signalgrass plant response rating (surinam grass; [2]): 5 | B. signalgrass plant response rating (surinam grass; [3]): 0 | Plant response rating, B. signalgrass (surinam grass; [4]): 0 | Plant response rating, B. signalgrass (surinam grass; [5]): 2 | B. signalgrass plant response rating (surinam grass; [6]): 8 | B. signalgrass plant response rating (surinam grass; [7]): 0 | B. signalgrass plant response rating (surinam grass; Rate 500 g/ha, Postemergence, scale of 0 to 10 where 0 is no effect and 10 is complete control): 9 | Wild oats plant response rating (wild oat; [1]): 0 | Wild oats plant response rating (wild oat; [2]): 2 | Wild oats plant response rating (wild oat; [3]): 0 | Plant response rating, Wild oats (wild oat; [4]): 0 | Plant response rating, Wild oats (wild oat; [5]): 4 | Wild oats plant response rating (wild oat; [6]): 4 | Wild oats plant response rating (wild oat; [7]): 0 | Wild oats plant response rating (wild oat; [8]): 5 | Ducksalad plant response rating (duck salad; [1]): 0 | Ducksalad plant response rating (duck salad; [9]): 0 | Ducksalad plant response rating (duck salad; [10]): 0 | Ducksalad plant response rating (duck salad; [11]): 0 | S. Flatsedge plant response rating (smallflower flatsedge; [1]): 0 | S. Flatsedge plant response rating (smallflower flatsedge; [9]): 0 | S. Flatsedge plant response rating (smallflower flatsedge; [10]): 0 | S. Flatsedge plant response rating (smallflower flatsedge; [11]): 0
